Assay results as given in US8138119B2, “Alkoxyalkyl spirocyclic tetramic acids and tetronic acids” (Bayer Cropscience AG, priority 2005, dated 2012).

Experiment: Determination of the log P values by HPLC on a reversed-phase column (C18)
Format: physicochemical
Conditions: for chromatographic logP: reversed-phase HPLC column (C18)
Description: The log P values given in the table were determined in accordance with EEC Directive 79/831 Annex V.A8 by HPLC (High Performance Liquid Chromatography) on a reversed-phase column (C18). Temperature: 43° C.
Mobile phases for the determination in the acidic range (pH 2.3): 0.1% aqueous phosphoric acid, acetonitrile; linear gradient from 10% acetonitrile to 90% acetonitrile
Calibration was carried out using unbranched alkan-2-ones (with 3 to 16 carbon atoms) whose log P values are known (determination of the log P values by the retention times using linear interpolation between two successive alkanones).

[1] = compounds of the formula (III), cis/trans isomer mixture, first value of the cell
[2] = compounds of the formula (III), cis/trans isomer mixture, second value of the cell
[3] = compounds of the formula (I-2-a), m.p. ° C./log P
[4] = pH 2.3, HPLC reversed-phase column (C18), acidic range (pH 2.3), 43° C.

SMILES | log P [1] | log P [2] | log P [3] | other results
CCOC(=O)C1(OC(=O)Cc2cc(C)c(C)cc2C)CCCC(CCOC)C1 (mixture of isomers) [III-21] | 4.94 | 5.05 |  | 
CCc1cc(Br)cc(CC)c1C1=C(O)C2(CCCC(CCOC)C2)OC1=O (stereo not drawn) [Example I-2-a-23] |  |  | oil/3.63 | 
CCOC(=O)C1(OC(=O)Cc2cc(-c3ccc(Cl)cc3)ccc2C)CCC(COC)CC1 (mixture of isomers) [III-8] | 5.36 | 5.49 |  | 
CCc1cc(C)cc(CC)c1C1=C(O)C2(CCC(CCOC)CC2)OC1=O (stereo not drawn) [Example I-2-a-33] |  |  | oil/3.40 | 
CCOC(=O)C1(OC(=O)Cc2c(C)cc(Br)cc2C)CCCC(COC)C1 (mixture of isomers) [III-3] | 4.94 | 5.05 |  | 
CCc1cc(C)cc(CC)c1C1=C(OC(=O)C(C)C)C2(CCC(CCOC)CC2)OC1=O (stereo not drawn) [Example I-2-b-2] |  |  |  | chromatographic logP [4]: 5.43
CCc1cc(Br)cc(CC)c1C1=C(O)C2(CCC(CCOC)CC2)OC1=O (stereo not drawn) [Example I-2-a-32] |  |  | oil/3.59 | 
COCCC1CCC2(CC1)OC(=O)C(c1cc(C)c(C)cc1C)=C2O (stereo not drawn) [Example I-2-a-31] |  |  | oil/2.92 | 
CCOC(=O)C1(OC(=O)Cc2c(C)cc(C)cc2C)CCC(CCOC)CC1 (stereo not drawn) [III-1] |  |  |  | log P (cis/trans isomer mixture, HPLC reversed-phase column (C18), acidic range (pH 2.3), 43° C.): 5.13; chromatographic logP (pH 2.3, cis/trans isomer mixture, HPLC reversed-phase column (C18), acidic range (pH 2.3), 43° C.): 5.01
CCOC(=O)C1(OC(=O)Cc2c(C)cc(Cl)cc2C)CCC(CCOC)CC1 (mixture of isomers) [III-30] | 5.00 | 5.15 |  | 
COCCC1CCC2(CC1)OC(=O)C(c1cc(-c3ccc(Cl)cc3)ccc1Cl)=C2O (stereo not drawn) [Example I-2-a-35] |  |  | oil/3.67 | 
CCOC(=O)C1(OC(=O)Cc2cc(C)c(-c3ccc(Cl)cc3)cc2C)CCC(CCOC)CC1 (mixture of isomers) [III-34] | 6.14 | 6.19 |  | 
CCOC(=O)C1(OC(=O)Cc2cc(-c3ccc(Cl)cc3)ccc2C)CCCC(COC)C1 (mixture of isomers) [III-2] | 5.50 | 5.58 |  | 
COCCC1CCC2(CC1)OC(=O)C(c1c(C)cc(Cl)cc1C)=C2O (stereo not drawn) [Example I-2-a-30] |  |  | oil/3.00 | 
COCCC1CCCC2(C1)OC(=O)C(c1cc(-c3ccc(Cl)cc3)ccc1Cl)=C2O (stereo not drawn) [Example I-2-a-26] |  |  | oil/3.68 | 
COCCC1CCCC2(C1)OC(=O)C(c1cc(C)c(C)cc1C)=C2O (stereo not drawn) [Example I-2-a-21] |  |  | oil/2.96 | 
CCc1cc(Br)cc(CC)c1C1=C(O)C2(CCCC(COC)C2)OC1=O (stereo not drawn) [Example I-2-a-7] |  |  | oil/3.44 | 
COCC1CCC2(CC1)OC(=O)C(c1c(C)cc(C)cc1C)=C2O (stereo not drawn) [Example I-2-a-12] |  |  | oil/2.69 | 
CCOC(=O)C1(OC(=O)Cc2c(CC)cc(Br)cc2CC)CCC(CCOC)CC1 (mixture of isomers) [III-32] | 5.75 | 5.90 |  | 
COCCC1CCCC2(C1)OC(=O)C(c1c(C)cc(Cl)cc1C)=C2O (stereo not drawn) [Example I-2-a-20] |  |  | oil/3.03 | 
COCCC1CCC2(CC1)OC(=O)C(c1cc(-c3ccc(Cl)cc3)ccc1C)=C2O (stereo not drawn) [Example I-2-a-28] |  |  | oil/3.71 | 

SMILES | log P [1] | log P [2] | log P [3] | other results
CCOC(=O)C1(OC(=O)Cc2c(C)cc(C)cc2C)CCC(COC)CC1 (mixture of isomers) [III-12] | 4.76 | 4.88 |  | 
CCOC(=O)C1(OC(=O)Cc2cc(-c3ccc(Cl)cc3)ccc2C)CCC(CCOC)CC1 (mixture of isomers) [III-28] | 5.69 | 5.81 |  | 
CCOC(=O)C1(OC(=O)Cc2cc(C)c(C)cc2C)CCC(COC)CC1 (mixture of isomers) [III-11] | 4.74 | 4.85 |  | 
CCc1cc(C)cc(CC)c1C1=C(O)C2(CCC(COC)CC2)OC1=O (stereo not drawn) [Example I-2-a-14] |  |  | oil/3.19 | 
CCOC(=O)C1(OC(=O)Cc2cc(-c3ccc(Cl)cc3)ccc2Cl)CCC(COC)CC1 (mixture of isomers) [III-16] | 5.52 | 5.67 |  | 
COCC1CCC2(CC1)OC(=O)C(c1cc(C)c(C)cc1C)=C2O (stereo not drawn) [Example I-2-a-11] |  |  | oil/2.72 | 
CCOC(=O)C1(OC(=O)Cc2c(CC)cc(C)cc2CC)CCC(CCOC)CC1 (mixture of isomers) [III-33] | 5.64 | 5.75 |  | 
CCOC(=O)C1(OC(=O)Cc2c(CC)cc(Br)cc2CC)CCCC(COC)C1 (mixture of isomers) [III-7] | 5.52 | 5.62 |  | 
COCCC1CCC2(CC1)OC(=O)C(c1c(C)cc(C)cc1C)=C2OC(=O)C(C)C (stereo not drawn) [Example I-2-b-1] |  |  |  | chromatographic logP [4]: 4.79
COCC1CCCC2(C1)OC(=O)C(c1cc(-c3ccc(Cl)cc3)ccc1C)=C2O (stereo not drawn) [Example I-2-a-2] |  |  | oil/3.58 | 
COCCC1CCC2(CC1)OC(=O)C(c1c(C)cc(Br)cc1C)=C2O (stereo not drawn) [Example I-2-a-29] |  |  | oil/3.10 | 
CCOC(=O)C1(OC(=O)Cc2cc(C)c(-c3ccc(Cl)cc3)cc2C)CCCC(CCOC)C1 (mixture of isomers) [III-25] | 6.03 | 6.12 |  | 
CCOC(=O)C1(OC(=O)Cc2cc(-c3ccc(Cl)cc3)ccc2C)CCCC(CCOC)C1 (mixture of isomers) [III-18] | 5.68 | 5.80 |  | 
CCOC(=O)C1(OC(=O)Cc2c(C)cc(Br)cc2C)CCC(COC)CC1 (mixture of isomers) [III-9] | 4.88 | 5.01 |  | 
CCc1cc(C)cc(CC)c1C1=C(O)C2(CCCC(CCOC)C2)OC1=O (stereo not drawn) [Example I-2-a-24] |  |  | oil/3.44 | 
CCOC(=O)C1(OC(=O)Cc2c(CC)cc(Br)cc2CC)CCCC(CCOC)C1 (mixture of isomers) [III-23] | 5.69 | 5.81 |  | 
CCOC(=O)C1(OC(=O)Cc2c(C)cc(C)cc2C)CCCC(CCOC)C1 (mixture of isomers) [III-22] | 4.94 | 5.05 |  | 
CCOC(=O)C1(OC(=O)Cc2c(C)ccc(-c3ccc(Cl)cc3)c2C)CCCC(CCOC)C1 (mixture of isomers) [III-27] | 6.02 | 6.09 |  | 
COCC1CCCC2(C1)OC(=O)C(c1cc(C)c(C)cc1C)=C2O (stereo not drawn) [1-2-a-5] |  |  | oil/2.78 | 
COCCC1CCCC2(C1)OC(=O)C(c1cc(C)c(-c3ccc(Cl)cc3)cc1C)=C2O (stereo not drawn) [Example I-2-a-25] |  |  | oil/4.03 | 
CCOC(=O)C1(OC(=O)Cc2cc(-c3ccc(Cl)cc3)ccc2Cl)CCCC(CCOC)C1 (mixture of isomers) [III-26] | 5.67 | 5.82 |  | 
